Patent US20200148646A1, “6-S[…] 7-S[…] ANALOGS AND THE USE THEREOF” (Purdue Pharma, L.P., priority 2013, published 2020)

Experiments:
μ-opioid receptor = μ-opioid receptor (Homo sapiens, UniProt P35372); assay: μ-opioid receptor [35S]GTPγS functional assay, U-2 OS cells; type: biochemical; design: host or cells: U-2 OS cells; settings: for Emax: U2-OS cells, relative to DAMGO
Method: [^35S]GTPγS functional assays were conducted using freshly thawed μ-receptor membranes prepared in-house from a cell line expressing recombinant opioid receptor in a HEK-293, CHO or U-2 OS cell background, or purchased from a commercial source (Perkin Elmer, Shelton, Conn.; or DiscovRx, Fremont, Calif.). Assay reactions were prepared by sequentially adding the following reagents to binding buffer (100 mM NaCl, 10 mM MgCl2, 20 mM HEPES, pH 7.4) on ice (final concentrations indicated): membrane protein (0.026 mg/mL), saponin ([…]), GDP ([…]) and [^35S]GTPγS (0.20 nM; Perkin Elmer, Shelton, Conn.). The prepared membrane solution (190 l/well) was transferred to 96-shallow well polypropylene plates containing 10 μl of 20× concentrated stock solutions of the agonist [D-Ala^2, N-methyl-Phe^4 Gly-ol^5]-enkephalin (DAMGO) prepared in dimethyl sulfoxide (DMSO). Plates were incubated for 30 min at about 25° C. with shaking. Reactions were terminated by rapid filtration onto 96-well Unifilter GF/B filter plates (Perkin Elmer, Shelton, Conn.) using a 96-well tissue harvester (Perkin Elmer, Shelton, Conn.) followed by three filtration washes with 200 μl of ice-cold wash buffer (10 mM NaH2PO4, 10 mM Na2HPO4, pH 7.4). Filter plates were subsequently dried at 50° C. for 2-3 hr. BetaScint scintillation cocktail (Perkin Elmer, Shelton, Conn.) was added (50 μl/well) and plates were counted using a Packard Top-Count for 1 min/well. Data were analyzed using the sigmoidal dose-response curve fitting functions in GraphPad PRISM v. 3.0, or an in-house function for non-linear, sigmoidal dose-response curve-fitting.
μ GTP EC50 is the concentration of a compound providing 50% of the maximal response for the compound at a μ-opioid receptor.
μ GTP Emax (%) is the maximal effect elicited by a compound relative to the effect elicited by DAMGO, a standard agonist. Generally, the μ GTP Emax (%) value measures the efficacy of a compound to treat or prevent pain or other Conditions.
(§1) In TABLE 2A, activity response of certain Compounds of the Invention at the μ- and κ-opioid receptors using U-2 OS cells was determined as described above for functional assays.

human κ opioid receptor = human κ opioid receptor (Homo sapiens, UniProt P41145); assay: κ-opioid receptor [35S]GTPγS functional assay, U-2 OS cells; type: biochemical; design: expressed in transfected cells; host or cells: U-2 OS cells (in-house membranes); settings: for Emax: U2-OS cells, relative to U69,593
Method: Membranes from recombinant HEK-293 cells, CHO or U-2 OS cells expressing the recombinant human K opioid receptor (K) were prepared by lysing cells in ice cold hypotonic buffer (2.5 mM MgCl2, 50 mM HEPES, pH 7.4) (10 mL/10 cm dish) followed by homogenization with a tissue grinder/Teflon pestle. Functional [^35S]GTPγS binding assays were conducted as follows. K opioid receptor membrane solution was prepared by sequentially adding final concentrations of 0.026 μg/μl κ membrane protein (in-house), 10 μg/mL saponin, 3 μM GDP and 0.20 nM [^35S]GTPγS to binding buffer (100 mM NaCl, 10 mM MgCl2, 20 mM HEPES, pH 7.4) on ice. The prepared membrane solution (190 μl/well) was transferred to 96-shallow well polypropylene plates containing 10 μl of 20× concentrated stock solutions of agonist prepared in DMSO. Plates were incubated for 30 min at a temperature of about 25° C. with shaking. Reactions were terminated by rapid filtration onto 96-well Unifilter GF/B filter plates (Perkin Elmer, Shelton, Conn.) using a 96-well tissue harvester (Packard) and followed by three filtration washes with 200 μl ice-cold binding buffer (10 mM NaH2PO4, 10 mM Na2HPO4, pH 7.4). Filter plates were subsequently dried at 50° C. for 2-3 hours. Fifty μl/well scintillation cocktail (Perkin Elmer, Shelton, Conn.) was added and plates were counted in a Packard Top-Count for 1 min/well.
κ GTP EC50 is the concentration of a compound providing 50% of the maximal response for the compound at a κ receptor.
κ GTP Emax (%) is the maximal effect elicited by a compound relative to the effect elicited by U69,593.
as §1

Sequence of μ-opioid receptor (P35372 whole entry, species assumed): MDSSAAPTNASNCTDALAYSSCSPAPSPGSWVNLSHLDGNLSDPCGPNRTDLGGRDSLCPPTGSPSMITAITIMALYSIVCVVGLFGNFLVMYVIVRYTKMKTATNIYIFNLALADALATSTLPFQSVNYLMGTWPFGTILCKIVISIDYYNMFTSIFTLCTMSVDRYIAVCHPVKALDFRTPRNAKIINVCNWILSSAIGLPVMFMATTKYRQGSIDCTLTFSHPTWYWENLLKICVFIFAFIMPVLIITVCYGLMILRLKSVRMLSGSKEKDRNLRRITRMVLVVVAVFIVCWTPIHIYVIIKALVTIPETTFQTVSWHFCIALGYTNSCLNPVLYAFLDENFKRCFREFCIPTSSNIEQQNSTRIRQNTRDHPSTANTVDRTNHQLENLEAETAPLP
Sequence of human κ opioid receptor (P41145 whole entry): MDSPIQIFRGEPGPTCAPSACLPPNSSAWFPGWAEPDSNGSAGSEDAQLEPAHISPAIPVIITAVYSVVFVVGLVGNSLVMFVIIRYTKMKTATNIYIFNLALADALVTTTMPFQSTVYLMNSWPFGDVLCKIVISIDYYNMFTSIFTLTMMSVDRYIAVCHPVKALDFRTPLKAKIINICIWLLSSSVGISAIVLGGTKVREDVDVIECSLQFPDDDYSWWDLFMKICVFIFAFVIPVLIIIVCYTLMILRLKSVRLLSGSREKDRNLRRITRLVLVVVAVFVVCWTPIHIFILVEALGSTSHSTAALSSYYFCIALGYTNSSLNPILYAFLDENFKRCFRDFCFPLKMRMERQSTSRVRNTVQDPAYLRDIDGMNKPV

SMILES	EC50 (μ-opioid receptor)	Emax (μ-opioid receptor)	EC50 (human κ opioid receptor)	Emax (human κ opioid receptor)
COc1ccc2c(c1)[C@@]13CCC(=O)C[C@@]1(O)[C@@H](C2)N(CC1CC1)CC3 [Compound 31, (4bS,8aS,9R)-11-(cyclopropylmethyl)-8a-hydroxy-3-methoxy-5,6,8,8a,9,10-hexahydro-7H-9,4b-(epiminoethano)phenanthren-7-one]	740 ± 49.5 nM	57.3 ± 2.73%	633 ± 87.1 nM	108 ± 3.76%
N=C(N)NCCN[C@H]1CC[C@]23CCN(CC4CC4)[C@H](Cc4ccc(O)cc42)[C@]3(O)C1 [Compound 32, 1-(2-(((4bS,7S,8aS,9R)-11-(cyclopropylmethyl)-3,8a-dihydroxy-6,7,8,8a,9,10-hexahydro-5H-9,4b-(epiminoethano)phenanthren-7-yl)amino)ethyl)guanidine]	> 20000 nM	5.33 ± 1.45%	> 20000 nM	-1%
COc1ccc2c(c1)[C@]13CCN(CC4CC4)[C@H](C2)[C@]1(O)C[C@@H](NCC(C)C)[C@@H](O)C3 [Compound 33, (4bR,6S,7R,8aS,9R)-11-(cyclopropylmethyl)-7-(isobutylamino)-3-methoxy-5,6,7,8,9,10-hexahydro-8aH-9,4b-(epiminoethano)phenanthrene-6,8a-diol]	503 ± 43.5 nM	43 ± 3.79%	328 ± 22.1 nM	93.7 ± 1.76%
CN[C@@H]1C[C@@]2(O)[C@H]3Cc4ccc(O)cc4[C@@]2(CCN3CC2CC2)C[C@@H]1O [Compound 35, (4bR,6S,7R,8aS,9R)-11-(cyclopropylmethyl)-7-(methylamino)-5,6,7,8,9,10-hexahydro-8aH-9,4b-(epiminoethano)phenanthrene-3,6,8a-triol]	2.55 ± 0.33 nM	25.7 ± 0.88%	0.2 ± 0.042 nM	97.3 ± 2.85%
Oc1ccc2c(c1)[C@]13CCN(CC4CC4)[C@H](C2)[C@]1(O)C[C@@H](NCc1ccccc1)[C@@H](O)C3 [Compound 36, (4bR,6S,7R,8aS,9R)-7-(benzylamino)-11-(cyclopropylmethyl)-5,6,7,8,9,10-hexahydro-8aH-9,4b-(epiminoethano)phenanthrene-3,6,8a-triol]	2.36 ± 0.64 nM	24.3 ± 0.88%	0.34 ± 0.033 nM	62 ± 3.06%
Oc1ccc2c(c1)[C@]13CCN(CC4CC4)[C@H](C2)[C@]1(O)C[C@@H](NCc1ccccc1)[C@H](O)C3 [Compound 37, (4bR,6R,7R,8aS,9R)-7-(benzylamino)-11-(cyclopropylmethyl)-5,6,7,8,9,10-hexahydro-8aH-9,4b-(epiminoethano)phenanthrene-3,6,8a-triol]	3.35 ± 0.41 nM	24.3 ± 0.88%	0.5 ± 0.039 nM	87.7 ± 2.19%
Oc1ccc2c(c1)[C@]13CCN(CC4CC4)[C@H](C2)[C@]1(O)C[C@@H](N1CCCC1)[C@@H](O)C3 [Compound 38, (4bR,6S,7R,8aS,9R)-11-(cyclopropylmethyl)-7-(pyrrolidin-1-yl)-5,6,7,8,9,10-hexahydro-8aH-9,4b-(epiminoethano)phenanthrene-3,6,8a-triol]	1.27 ± 0.19 nM	23.3 ± 1.86%	0.33 ± 0.022 nM	80 ± 3.79%
Oc1ccc2c(c1)[C@]13CCN(CC4CC4)[C@H](C2)[C@]1(O)C[C@@H](N1CCOCC1)[C@@H](O)C3 [Compound 39, (4bR,6S,7R,8aS,9R)-11-(cyclopropylmethyl)-7-morpholino-5,6,7,8,9,10-hexahydro-8aH-9,4b-(epiminoethano)phenanthrene-3,6,8a-triol]	> 20000 nM	2%	> 20000 nM	1%
O=C(O)CN[C@@H]1C[C@@]2(O)[C@H]3Cc4ccc(O)cc4[C@@]2(CCN3CC2CC2)C[C@@H]1O [Compound 40, ((4bR,6S,7R,8aS,9R)-11-(cyclopropylmethyl)-3,6,8a-trihydroxy-6,7,8,8a,9,10-hexahydro-5H-9,4b-(epiminoethano)phenanthren-7-yl)glycine]	> 20000 nM	2%	7.24 ± 0.65 nM	43 ± 3.06%
COc1ccc2c(c1)[C@@]13CC[C@H](NCC(C)C)C[C@@]1(O)[C@@H](C2)N(CC1CC1)CC3 [Compound 41, (4bS,7S,8aS,9R)-11-(cyclopropylmethyl)-7-(isobutylamino)-3-methoxy-5,6,7,8,9,10-hexahydro-8aH-9,4b-(epiminoethano)phenanthren-8a-ol]	674 ± 63.8 nM	74.7 ± 4.67%	41.6 ± 2.25 nM	102 ± 2.19%
CC(=O)N[C@H]1CC[C@]23CCN(CC4CC4)[C@H](Cc4ccc(O)cc42)[C@]3(O)C1 [Compound 47, N-((4bS,7S,8aS,9R)-11-(cyclopropylmethyl)-3,8a-dihydroxy-6,7,8,8a,9,10-hexahydro-5H-9,4b-(epiminoethano)phenanthren-7-yl)acetamide]	0.61 ± 0.17 nM	44 ± 1.73%	0.14 ± 0.027 nM	105 ± 1.76%
COc1ccc2c(c1)[C@]13CCN(CC4CC4)[C@H](C2)[C@]1(O)C[C@H](NC(=O)C(C)C)C(O)C3 (stereo partly drawn) [Compound 49, N-((4bR,7S,8aS,9R)-11-(cyclopropylmethyl)-6,8a-dihydroxy-3-methoxy-6,7,8,8a,9,10-hexahydro-5H-9,4b-(epiminoethano)phenanthren-7-yl)isobutyramide]	8460 nM	27 ± 1.53%	7940 nM	90.3 ± 1.67%
COc1ccc2c(c1)[C@]13CCN(CC4CC4)[C@H](C2)[C@]1(O)C[C@H](OCC(C)C)[C@H](O)C3 [Compound 51, (4bR,6R,7S,8aS,9R)-11-(cyclopropylmethyl)-7-isobutoxy-3-methoxy-5,6,7,8,9,10-hexahydro-8aH-9,4b-(epiminoethano)phenanthrene-6,8a-diol]	> 20000 nM	7%	14500 ± 1680 nM	86.7 ± 3.18%
COc1ccc2c(c1)[C@@]13CC[C@@H](O)C[C@@]1(O)[C@@H](C2)N(CC1CC1)CC3 [Compound 52, (4bS,7R,8aS,9R)-11-(cyclopropylmethyl)-3-methoxy-5,6,7,8,9,10-hexahydro-8aH-9,4b-(epiminoethano)phenanthrene-7,8a-diol]	1260 nM	23.2 ± 4.07%	1570 ± 97.4 nM	91.3 ± 0.67%
CCC(C)C[C@H]1C[C@@]2(O)[C@H]3Cc4ccc(O)cc4[C@@]2(CCN3CC2CC2)C[C@H]1O (stereo partly drawn) [Compound 53, (4bR,6R,7S,8aS,9R)-11-(cyclopropylmethyl)-7-(2-methylbutyl)-5,6,7,8,9,10-hexahydro-8aH-9,4b-(epiminoethano)phenanthrene-3,6,8a-triol]	> 20000 nM	3%	73.8 ± 11.8 nM	62 ± 1.53%
Oc1ccc2c(c1)[C@]13CCN(CC4CC4)[C@H](C2)[C@]1(O)C[C@H](CC1CCCC1)[C@H](O)C3 [Compound 54, (4bR,6R,7S,8aS,9R)-7-(cyclopentylmethyl)-11-(cyclopropylmethyl)-5,6,7,8,9,10-hexahydro-8aH-9,4b-(epiminoethano)phenanthrene-3,6,8a-triol]	> 20000 nM	3%	32.1 ± 2.76 nM	97.7 ± 3.93%
CC(C)C(=O)N[C@H]1C[C@@]2(O)[C@H]3Cc4ccc(O)cc4[C@@]2(CCN3CC2CC2)C[C@H]1O [Compound 58, N-((4bR,6R,7S,8aS,9R)-11-(cyclopropylmethyl)-3,6,8a-trihydroxy-6,7,8,8a,9,10-hexahydro-5H-9,4b-(epiminoethano)phenanthren-7-yl)isobutyramide]	80.9 ± 15.1 nM	19.3 ± 1.45%	38.1 ± 2.2 nM	101 ± 1.2%
